Key:
[1] = test system: R7 in U937 monocytes; test: p24 ELISA of supernatant after R7 co-transfection; assay type: cell-based, HIV; settings: up to 36 days
Experimental: Jurkat cells, HEK293 cells, THP-1 monocytes and U937 monocytes were co-transfected with either R7 […] Nef SMR wt (antagonist) or with R7+Nef SMR mt (nonfunctional antagonist) by Chariot™ Kit. The transfection efficiency was 30-40%.
R7 is a clone containing the viral genome. Transfection into cells allows expression of the viral genome and ultimately virion formation and release. The amount of virion production in the extracellular supernatant is measured through p24 protein (viral protein).
At 2 hours, 3 days, 6 days, 9 days, 13 days, 15 days, 17 days, 20 days, 23 days, 27 days and 36 days post-transfection, 0.5 ml supernatant were collected from each plate, mixed with 0.5 ml fresh media and analyzed by p24 ELISA assay. 1.5 ml of supernatant were collected from each plate and spun in a TLA100 rotor at 400,000×g for 1 hour to create the pellets. The pellets were used for Western blot analysis with p24 mAb and Nef mAb.

[2] = test system: Jurkat cells; test: Cellular toxicity assay, fluorescein diacetate and propidium iodide; assay type: cell-based; settings: peptide alone by Chariot, 48 hours
Text: FIG. 12 is a composite of pictures showing the result of cellular toxicity assay for cells transfected with SMRwt or SMRmt peptide. Panels A-1 and B-1: Propidium iodide staining of cells transfected with SMRwt and SMRmt peptide, respectively. Panels A-2 and B-2: Fluorescein diacetate staining of cells transfected with SMRwt and SMRmt peptide, respectively. Panels A-3 and B-3: Phase microscope image of cells transfected with SMRwt and SMRmt peptide, respectively.
SMRwt or SMRmut (negative control) peptide alone were transfected into Jurkat cells using Chariot. The transfected cells were allowed to grow for 48 hours. The cells were assayed by Fluorescein diacetate (FD; taken up by live cells and converted to FITC making cells fluoresce green) and propidium iodide (PI; diffuse across porous membranes of dying cells fluoresing red inside those cells) for cytotoxicity.

[3] = test system: HIV-1wtNef-GFP vesicle secretion in Jurkat cells; test: Nef-GFP co-transfection secretion assay; assay type: cell-based; settings: 500 ng HIV-1wtNef-GFP + 7.8-500 ng peptide, Chariot
Experimental: In another experiment, Jurkat cells were co-transfected with 500 ng HIV-1wtNef-GFP and 7.8-500 ng of SMRwt peptide by Chariot. As shown in FIG. 3A the SMRwt peptide inhibits the vesicle secretion in Jurkat cells.

[4] = test system: R7 in Jurkat cells; test: Electron microscopy of viral particle distribution; assay type: cell-based, HIV; settings: R7 co-transfection, day 6 versus day 14
Text: (§1) FIG. 4A is a composite of diagrams showing ELISA analysis of p24 concentration in Jurkat cells (panel A), HEK293 cells (panel B), THP-1 Monocytes (panel C) and U937 monocytes (panel D). FIG. 4B is a composite of confocal microscope pictures showing blocking of p24 release in Jurkat cells by SMRwt peptide (panel A) but not by SMRrmt peptide (panel B). FIG. 4C is a composite of confocal and electron microscope pictures showing viral particle distribution in Jurkat cells at day 6 post-transfection with R7 and SMRwt peptide (panel A-1) or with R7 and SMRmt peptide (panel B-1). FIG. 4D is a composite of confocal and electron microscope pictures showing viral particle distribution in Jurkat cells at day 14 post-transfection with R7 and SMRwt peptide (panel A-2) or with R7 and SMRmt peptide (panel B-2), FIG. 4E is a composite of confocal and electron microscope pictures showing viral particle distribution in subcellular structures in Jurkat cells at day 6 post-transfection with R7 and SMRwt peptide (panel A-1) or with R7 and SMRmt peptide (panel B-1) in Jurkat cells and at day 14 post-transfection with R7 and SMRwt peptide (panel A-2) or with R7 and SMRmt peptide (panel B-2) in Jurkat cells.
FIGS. 4C-4E are electron microscopic pictures showing Jurkat cells transfected with R7/SMRwt or […] at day 6 (FIG. 4C) and day 14 (FIG. 4D) post transfection. […]

[5] = test system: R7 in Jurkat cells; test: Confocal microscopy of p24 in R7 transfected cells; assay type: cell-based, HIV; settings: day 3, 6, 10, 14, 17 after transfection with R7, accumulation in cytoplasm day 3, 6, 10
Text: as §1
The effect of SMRwt, however, seems to be temporary. It appears that Jurkat and HEK cells can degrade the peptide over time, while U937 monocytes cannot degrade the peptide. […]

## H-VGFPVAAVGFPVDYKDDDDK-OH [SMRwt]
[1]
  p24 in supernatant: little p24
[2]
  dying cells (propidium iodide): < 2%
[2]; FD/PI
  cytotoxicity (in words): very little or no cytotoxicity
[3]
  vesicle secretion (Nef-GFP): inhibits the vesicle secretion in Jurkat cells in a dose-dependent manner
[4]
  release of virus as measured by EM: delays release of virus from infected cells
[5]
  p24 release (confocal microscopy): blockage of p24 release

Source: patent publication US8431530B2, “Compositions and methods for treating aids or cancer by inhibiting the secretion of microparticles” (priority 2009, dated 2013)
